In patent US10597388B2, “Pyridazinone herbicides” (FMC CORPORATION, priority 2014, dated 2020):

What was measured:
Assay in all cases: Test D controlled growth environment herbicide test, pre- and postemergence
Type in all cases: in vivo
[1] = tested on: barley, spring (spring barley, Hordeum vulgare)
In short: (§1)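 Rating is visual, 0–100 scale (100 = complete control), made against untreated plants 14–21 d after treatment in controlled growth conditions. Postemergence sprays went onto 1- to 4-leaf plants in peat medium; preemergence sprays onto silt loam after sowing; formulation included a surfactant.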

[2] = tested on: blackgrass (Alopecurus myosuroides)
In short: as §1

[3] = tested on: bromegrass, downy (downy bromegrass, Bromus tectorum)
In short: as §1

[4] = tested on: canarygrass (Phalaris minor)
In short: as §1

[5] = tested on: chamomile (scentless chamomile, Matricaria inodora)
In short: as §1

[6] = tested on: chickweed (common chickweed, Stellaria media)
In short: as §1

[7] = tested on: deadnettle (henbit deadnettle, Lamium amplexicaule)
In short: as §1

[8] = tested on: field poppy (Papaver rhoeas)
In short: as §1

[9] = tested on: foxtail, green (green foxtail, Setaria viridis)
In short: as §1

[10] = tested on: galium (catchweed bedstraw, Galium aparine)
In short: as §1

kochia (Kochia scoparia) = tested on: kochia (Kochia scoparia)
In short: as §1

[11] = tested on: lambsquarters (Chenopodium album)
In short: as §1

[12] = tested on: oilseed rape (Brassica napus)
In short: as §1

[13] = tested on: wheat, spring (spring wheat, Triticum aestivum)
In short: as §1

[14] = Postemergence, 31 g ai/ha, scale 0 to 100 (0 no effect, 100 complete control)
[15] = Postemergence, 125 g ai/ha, visual rating on scale 0 (no effect) to 100 (complete control), 14 to 21 d
[16] = Postemergence, 250 g ai/ha, scale 0 to 100 (0 no effect, 100 complete control)
[17] = Preemergence, 62 g ai/ha, scale 0 to 100 (0 no effect, 100 complete control)
[18] = Preemergence, 125 g ai/ha, scale 0 to 100 (0 no effect, 100 complete control)
[19] = Preemergence, 250 g ai/ha, scale 0 to 100, 0 no effect, 100 complete control
[20] = postemergence, 62 g ai/ha, scale 0 to 100, 0 no effect, 100 complete control

CCc1sc2c(C)cc(C)cc2c1-c1c(O)c(C)nn(C)c1=O [Compound 57]
Barley, Spring plant response rating [1, 14]: 10 | Plant response rating, Barley, Spring [1, 15]: 10 | Plant response rating, Barley, Spring [1, 16]: 10 | Plant response rating (scale of 0 to 100), Barley, Spring ([1]; Preemergence, 31 g ai/ha): 5 | Plant response rating, Barley, Spring [1, 17]: 10 | Plant response rating, Barley, Spring [1, 18]: 10 | Plant response rating, Barley, Spring [1, 19]: 10 | Plant response rating, Barley, Spring [1, 20]: 10 | Blackgrass plant response rating [2, 14]: 15 | Plant response rating, Blackgrass [2, 15]: 55 | Plant response rating, Blackgrass [2, 16]: 75 | Plant response rating (scale of 0 to 100), Blackgrass ([2]; Preemergence, 31 g ai/ha): 25 | Plant response rating, Blackgrass [2, 17]: 35 | Plant response rating, Blackgrass [2, 18]: 70 | Plant response rating, Blackgrass [2, 19]: 80 | Plant response rating, Blackgrass [2, 20]: 45 | Bromegrass, Downy plant response rating [3, 14]: 15 | Plant response rating, Bromegrass, Downy [3, 15]: 25 | Plant response rating, Bromegrass, Downy [3, 16]: 35 | Plant response rating (scale of 0 to 100), Bromegrass, Downy ([3]; Preemergence, 31 g ai/ha): 0 | Plant response rating, Bromegrass, Downy [3, 17]: 5 | Plant response rating, Bromegrass, Downy [3, 18]: 25 | Plant response rating, Bromegrass, Downy [3, 19]: 30 | Plant response rating, Bromegrass, Downy [3, 20]: 20 | Canarygrass plant response rating [4, 14]: 5 | Plant response rating, Canarygrass [4, 15]: 15 | Plant response rating, Canarygrass [4, 16]: 25 | Plant response rating (scale of 0 to 100), Canarygrass ([4]; Preemergence, 31 g ai/ha): 0 | Plant response rating, Canarygrass [4, 17]: 10 | Plant response rating, Canarygrass [4, 18]: 55 | Plant response rating, Canarygrass [4, 19]: 65 | Plant response rating, Canarygrass [4, 20]: 5 | Chamomile plant response rating [5, 14]: 100 | Plant response rating, Chamomile [5, 15]: 100 | Plant response rating, Chamomile [5, 16]: 100 | Plant response rating, Chamomile [5, 20]: 100 | Chickweed plant response rating [6, 14]: 100 | Plant response rating, Chickweed [6, 15]: 100 | Plant response rating, Chickweed [6, 16]: 100 | Plant response rating (scale of 0 to 100), Chickweed ([6]; Preemergence, 31 g ai/ha): 100 | Plant response rating, Chickweed [6, 17]: 100 | Plant response rating, Chickweed [6, 18]: 100 | Plant response rating, Chickweed [6, 19]: 100 | Plant response rating, Chickweed [6, 20]: 100 | Deadnettle plant response rating [7, 14]: 70 | Plant response rating, Deadnettle [7, 15]: 85 | Plant response rating, Deadnettle [7, 16]: 100 | Plant response rating (scale of 0 to 100), Deadnettle ([7]; Preemergence, 31 g ai/ha): 0 | Plant response rating, Deadnettle [7, 17]: 20 | Plant response rating, Deadnettle [7, 18]: 25 | Plant response rating, Deadnettle [7, 19]: 45 | Plant response rating, Deadnettle [7, 20]: 90 | Field Poppy plant response rating [8, 14]: 100 | Plant response rating, Field Poppy [8, 15]: 100 | Plant response rating, Field Poppy [8, 16]: 100 | Plant response rating (scale of 0 to 100), Field Poppy ([8]; Preemergence, 31 g ai/ha): 100 | Plant response rating, Field Poppy [8, 17]: 100 | Plant response rating, Field Poppy [8, 18]: 100 | Plant response rating, Field Poppy [8, 19]: 100 | Plant response rating, Field Poppy [8, 20]: 100 | Foxtail, Green plant response rating [9, 14]: 75 | Plant response rating, Foxtail, Green [9, 15]: 75 | Plant response rating, Foxtail, Green [9, 16]: 90 | Plant response rating (scale of 0 to 100), Foxtail, Green ([9]; Preemergence, 31 g ai/ha): 10 | Plant response rating, Foxtail, Green [9, 17]: 70 | Plant response rating, Foxtail, Green [9, 18]: 100 | Plant response rating, Foxtail, Green [9, 19]: 100 | Plant response rating, Foxtail, Green [9, 20]: 75 | Galium plant response rating [10, 14]: 90 | Plant response rating, Galium [10, 15]: 90 | Plant response rating, Galium [10, 16]: 98 | Plant response rating (scale of 0 to 100), Galium ([10]; Preemergence, 31 g ai/ha): 85 | Plant response rating, Galium [10, 17]: 100 | Plant response rating, Galium [10, 18]: 100 | Plant response rating, Galium [10, 19]: 100 | Plant response rating, Galium [10, 20]: 90 | Kochia plant response rating (kochia (Kochia scoparia); [14]): 40 | Plant response rating, Kochia (kochia (Kochia scoparia); [15]): 65 | Plant response rating, Kochia (kochia (Kochia scoparia); [16]): 75 | Plant response rating (scale of 0 to 100), Kochia (kochia (Kochia scoparia); Preemergence, 31 g ai/ha): 10 | Plant response rating, Kochia (kochia (Kochia scoparia); [17]): 10 | Plant response rating, Kochia (kochia (Kochia scoparia); [18]): 35 | Plant response rating, Kochia (kochia (Kochia scoparia); [19]): 100 | Plant response rating, Kochia (kochia (Kochia scoparia); [20]): 55 | Lambsquarters plant response rating [11, 14]: 75 | Plant response rating, Lambsquarters [11, 15]: 75 | Plant response rating, Lambsquarters [11, 16]: 85 | Plant response rating (scale of 0 to 100), Lambsquarters ([11]; Preemergence, 31 g ai/ha): 100 | Plant response rating, Lambsquarters [11, 17]: 100 | Plant response rating, Lambsquarters [11, 18]: 100 | Plant response rating, Lambsquarters [11, 19]: 100 | Plant response rating, Lambsquarters [11, 20]: 75 | Oilseed Rape plant response rating [12, 14]: 20 | Plant response rating, Oilseed Rape [12, 15]: 65 | Plant response rating, Oilseed Rape [12, 16]: 65 | Plant response rating (scale of 0 to 100), Oilseed Rape ([12]; Preemergence, 31 g ai/ha): 0 | Plant response rating, Oilseed Rape [12, 17]: 0 | Plant response rating, Oilseed Rape [12, 18]: 0 | Plant response rating, Oilseed Rape [12, 19]: 25 | Plant response rating, Oilseed Rape [12, 20]: 25 | Wheat, Spring plant response rating [13, 14]: 0 | Plant response rating, Wheat, Spring [13, 15]: 10 | Plant response rating, Wheat, Spring [13, 16]: 10 | Plant response rating (scale of 0 to 100), Wheat, Spring ([13]; Preemergence, 31 g ai/ha): 5 | Plant response rating, Wheat, Spring [13, 17]: 5 | Plant response rating, Wheat, Spring [13, 18]: 5 | Plant response rating, Wheat, Spring [13, 19]: 10 | Plant response rating, Wheat, Spring [13, 20]: 10
